Data as given in patent US6489440B1, “Cyclic compounds” (Basilea Pharmaceutica AG, priority 1998, dated 2002).
Numbered stars: 1 amine (or outer) side, 2 acyl side, 3 side chain; on linkers, the order of the positions; unused ones are H or OH. Bridge positions count the residues as written; N and C are the ends. Square brackets hold non-standard residues; d marks the D form. Peptide text beside a SMILES is read from it. ξ: configuration not given here. X13 = CCCCCOc1ccc(-c2ccc(CC[C@H](CC(=O)[*:1])N[*:2])cc2)cc1; X12 = NCC(=O)Nc1cc(CC(N[*:1])C(=O)[*:2])ccc1O; X9 = CCCCCCCCCCCCC[C@H](CC(=O)[*:1])O[*:2]; X2 = NC(=O)CC(O)C(N[*:1])C(=O)[*:2]; ξDopa = NC(Cc1ccc(O)c(O)c1)C(=O)O; X1 = O=C(C1C(O)CCN1[*:1])[*:2]; ξY = NC(Cc1ccc(O)cc1)C(=O)O; ξHyp = O=C(O)C1CC(O)CN1; ξOrn = NCCCC(N)C(=O)O; ξT = CC(O)C(N)C(=O)O; ξV = CC(C)C(N)C(=O)O; ξP = O=C(O)C1CCCN1; ξA = CC(N)C(=O)O; Sar = CNCC(=O)O

Tests used:
mouse hepatocytes = test: In vitro hepatotoxicity test; assay type: cell-based; conditions: mouse hepatocyte monolayers exposed 1 day, morphological evaluation
Excerpt: The mouse hepatocytes were isolated by a collagenase digestion and cultured in microtest plates. The hepatocyte monolayers were exposed to the test Aerothricins in the culture system for 1 day. After the culture period, the hepatocytes were observed under a microscope and evaluated morphologically. The degree of the morphological alteration (degeneration) of the hepatocytes by the test Aerothricins were compared with WF 11243 and LY303366.

Solubility = conditions: solvents in which soluble
Candida albicans = test: In vivo antifungal efficacy, systemic candidiasis in mice; set-up: species or system Crj: CD-1 (ICR) mice; conditions: i.v., b.i.d×1 day followed by q.d.×2 days; from survival on day 14
Procedure: Mice of a conventional immunocompetent mouse strain, Crj: CD-1 (ICR) were used for experimental infection models of systemic candidiasis. 4 weeks old Crj: CD-1 (ICR) mice were used for systemic candidiasis by injecting Candida albicans 5×10^6 conidia/mouse via the tail vein. Treatments were given twice (0, 4 h after infection) on the first day and once daily on following 2 days for systemic candidiasis (b.i.d×1 day followed by q.d.×2 days), intravenously (i.v.). 50% of effective dose (ED50) values was calculated from the survival number at each dose on day 14.

CCCCCCCCCCOc1ccc(CC[C@@H]2CC(=O)NC(C(C)O)C(=O)NC(C)C(=O)NC(Cc3ccc(O)cc3)C(=O)NC(C(C)C)C(=O)N3CC(O)CC3C(=O)NC(C(C)O)C(=O)NC(C(C)O)C(=O)N3CCC(O)C3C(=O)NC(C(O)CC(N)=O)C(=O)NCC(=O)NC(C(C)O)C(=O)NC(CCCN)C(=O)N2)cc1 (single isomer, unassigned) [Aerothricin 47]
Cytotoxicity to hepatocyte (mouse hepatocytes): >100 µg/mL

CCCCCCCCCCCCC[C@@H]1CC(=O)NC(C(C)O)C(=O)NC(C)C(=O)NC(Cc2ccc(O)c(O)c2)C(=O)NC(C(C)C)C(=O)N2CC(O)CC2C(=O)NC(C(C)O)C(=O)NC(C(C)O)C(=O)N2CCC(O)C2C(=O)NC(C(O)CC(N)=O)C(=O)NCC(=O)NC(C(C)O)C(=O)NC(CCCN)C(=O)O1 (some centres unmarked) [Aerothricin 2] ([ξT][ξA][ξDopa][ξV][ξHyp][ξT][ξT][X1][X2]G[ξT][ξOrn]; linker N-C via X9)
Solubility (Solubility): Soluble: water, methanol, dimethylsulfoxide

CCCCCCCCCCCCC[C@@H]1CC(=O)NC(C(C)O)C(=O)NC(C)C(=O)NC(Cc2ccc(OC)cc2)C(=O)NC(C(C)C)C(=O)N2CC(O)CC2C(=O)NC(C(C)O)C(=O)NC(C(C)O)C(=O)N2CCC(O)C2C(=O)NC(C(O)CC(N)=O)C(=O)NCC(=O)NC(C(C)O)C(=O)NC(CCCN)C(=O)O1 (some centres unmarked) [Aerothricin 5] ([ξT][ξA][ξY](Me)[ξV][ξHyp][ξT][ξT][X1][X2]G[ξT][ξOrn]; linker N-C via X9)
In vivo antifungal activity against systemic candidiasis in mice, ED50 on day 14 (Candida albicans): 0.3 mg/kg

CCCCCCCCCCCCC[C@@H]1CC(=O)NC(C(C)O)C(=O)NC(C)C(=O)NC(Cc2ccc(O)cc2)C(=O)NC(C(C)C)C(=O)N2CC(O)CC2C(=O)NC(C(C)O)C(=O)NC(C(C)O)C(=O)N2CCC(O)C2C(=O)NC(C(O)CC(N)=O)C(=O)NCC(=O)NC(C(C)O)C(=O)NC(CCCNC(=O)CNC)C(=O)O1 (some centres unmarked) [Aerothricin 14] ([ξT][ξA][ξY][ξV][ξHyp][ξT][ξT][X1][X2]G[ξT][ξOrn](Sar); linker N-C via X9)
Cytotoxicity to hepatocyte (mouse hepatocytes): >100 µg/mL

CCCCCCCCCCCCC[C@@H]1CC(=O)NC(C(C)O)C(=O)NC(C)C(=O)NC(Cc2ccc(O)cc2)C(=O)NC(C(C)C)C(=O)N2CC(O)CC2C(=O)NC(C(C)O)C(=O)NC(C(C)O)C(=O)N2CCC(O)C2C(=O)NC(C(O)CC(N)=O)C(=O)NCC(=O)NC(C(C)O)C(=O)NC(CCCNC(=O)C2CCCN2)C(=O)O1 (some centres unmarked) [Aerothricin 15] ([ξT][ξA][ξY][ξV][ξHyp][ξT][ξT][X1][X2]G[ξT][ξOrn](ξP); linker N-C via X9)
Cytotoxicity to hepatocyte (mouse hepatocytes): >100 µg/mL

CCCCCCCCCCCCC[C@@H]1CC(=O)NC(C(C)O)C(=O)NC(C)C(=O)NC(Cc2ccc(O)c(NC(=O)CN)c2)C(=O)NC(C(C)C)C(=O)N2CC(O)CC2C(=O)NC(C(C)O)C(=O)NC(C(C)O)C(=O)N2CCC(O)C2C(=O)NC(C(O)CC(N)=O)C(=O)NCC(=O)NC(C(C)O)C(=O)NC(CCCNC(=O)CN)C(=O)O1 (some centres unmarked) [Aerothricin 21] ([ξT][ξA][X12][ξV][ξHyp][ξT][ξT][X1][X2]G[ξT][ξOrn](Gly); linker N-C via X9)
Cytotoxicity to hepatocyte (mouse hepatocytes): >100 µg/mL

CCCCCCCCCCOc1ccc(CC[C@@H]2CC(=O)NC(C(C)O)C(=O)NC(C)C(=O)NC(Cc3ccc(O)cc3)C(=O)NC(C(C)C)C(=O)N3CC(O)CC3C(=O)NC(C(C)O)C(=O)NC(C(C)O)C(=O)N3CCC(O)C3C(=O)NC(C(O)CC(N)=O)C(=O)NCC(=O)NC(C(C)O)C(=O)NC(CCCN)C(=O)N2)cc1 (some centres unmarked) [Aerothricin 36]
In vivo antifungal activity against systemic candidiasis in mice, ED50 on day 14 (Candida albicans): 0.6 mg/kg

CCCCCOc1ccc(-c2ccc(CC[C@@H]3CC(=O)NC(C(C)O)C(=O)NC(C)C(=O)NC(Cc4ccc(O)cc4)C(=O)NC(C(C)C)C(=O)N4CC(O)CC4C(=O)NC(C(C)O)C(=O)NC(C(C)O)C(=O)N4CCC(O)C4C(=O)NC(C(O)CC(N)=O)C(=O)NCC(=O)NC(C(C)O)C(=O)NC(CCCN)C(=O)N3)cc2)cc1 (some centres unmarked) [Aerothricin 41] ([ξT][ξA][ξY][ξV][ξHyp][ξT][ξT][X1][X2]G[ξT][ξOrn]; linker N-C via X13)
In vivo antifungal activity against systemic candidiasis in mice, ED50 on day 14 (Candida albicans): 0.3 mg/kg
